Results as given in article PMC9221546, “New Phenylglycinamide Derivatives with Hybrid Structure as Candidates for New Broad-Spectrum Anticonvulsants” (Cells, 2022).
Like-named read-outs stand apart in the source and are kept apart here. Marks after values point to notes of the source that are not given here.

Experiments:
[1] = tested on: scPTZ-induced seizures in mice; assay: Subcutaneous pentylenetetrazole (scPTZ) seizure test; assay type: in vivo; conditions: 100 mg/kg i.p., 0.5 h
Experimental: (§1) Adult male Albino Swiss mice that weighed between 22 and 26 g were used in the in vivo studies. They were housed under standardized housing conditions in colony cages and had free access to food as well as tap water. The animals were left to adapt under laboratory conditions for 7 days. All procedures involving animals and their care were performed in accordance with the current European Community and Polish legislation on animal experimentation.
(§2) In the initial screening studies, four mice per group were randomly assigned to each experimental group (each mouse was used only once). To evaluate the ED50 or TD50 values, 3–4 groups that consisted of eight animals were injected with various doses of tested compounds. The protective indexes (PIs) for the compounds that were investigated and reference ASDs were calculated by dividing the TD50 value, as determined in the chimney test (or rotarod test), by the respective ED50 value, as determined in the MES, scPTZ, or 6 Hz (32 mA or 44 mA) tests (PI = TD50/ED50). The PIs is a measure of the potential therapeutic window of the tested agent.
(§3) All substances were suspended in Tween 80 (1% aqueous solution) and administered i.p. as a single injection at a dose of 10 mL/kg. On each day of experimentation, fresh solutions were prepared. The results are summarized in Table S1 (screening data) and Table 2 (ED50, TD50, and PI values, see Section 3 Results and Discussion).
(§4) The detailed in vivo procedures are described elsewhere: the maximal electroshock seizure test (MES), the subcutaneous pentylenetetrazole seizure test (scPTZ), the 6 Hz psychomotor seizure model (32 mA and 44 mA), and the chimney test.
(§5) The basic animal seizure models such as the MES, 6 Hz (32 mA or 44 mA), and the scPTZ are still a standard in the discovery and development of new ASDs. In vivo screening approaches enable the identification of compounds with unidentified and potentially novel mechanisms of action besides substances with well-established pharmacodynamics. Bearing in mind the aforementioned facts, compounds 45–66 were initially studied in the MES test and in the 6 Hz seizure model (32 mA) after intraperitoneal (i.p.) administration at a screening dose of 100 mg/kg in mice at a time point of 0.5 h (the screening group consisted of four mice, the results obtained are summarized in Table S1). It should be stressed that the MES test is an experimental model of human tonic–clonic epilepsy as well as partial convulsions with or without secondary generalization, the 6 Hz model (32 mA) corresponds to human focal epilepsy, whereas the scPTZ test relates to human generalized absence or myoclonic seizures.

[2] = tested on: MES-induced seizures in mice; assay: Maximal electroshock seizure (MES) test; assay type: in vivo; conditions: for protection in MES screening / responders at 100 mg/kg: 100 mg/kg i.p., 0.5 h; for protection in MES screening: four mice; for responders at 100 mg/kg / ED50: Mus musculus, ip; for responders at 100 mg/kg: read-out: MES screening: number of mice protected/number of mice tested (converted); for ED50: mice, pretreatment time 0.5 h, (95% confidence limits)
Experimental: as §1, §2, §3, §4, §5
(§6) We also established the median toxic doses (TD50) in the chimney test 0.5 h post i.p. administration of these compounds. Both the aforementioned parameters enabled the calculation of the protective indexes (PIs).

[3] = tested on: mice; assay: Capsaicin-induced hypothermia model / core body temperature; assay type: in vivo; conditions: compound 60 50 mg/kg, BCTC 20 mg/kg
Experimental: Capsaicin was dissolved in 1% DMSO and administered at a dose of 5 mg/kg at a time point 0 min. Compound 60 and BCTC (positive control) were suspended in 1% Tween 80 and administered 15 min before capsaicin (at time point -15 min). All compounds were injected i.p. at a constant volume of 10 mL/kg. Control animals received the respective vehicles (1% DMSO or 1% Tween 80). Changes in the rectal temperature were measured using an electronic thermometer (ThermoWorks, Alpine, UT, USA) by inserting the rectal probe to a depth of ~2 cm into the rectum of the mouse. The measurements were taken at −15, 0, 15, 30, 60, 90, 120, and 180 min. The differences in the rectal temperature from baseline (time -15 min for groups receiving compound 60 and BCTC in combination with vehicle or time 0 min for groups receiving vehicle and capsaicin or compound 60 and BCTC in combination with capsaicin) to the respective time point ΔT (°C) were then calculated and analyzed. The results are shown in Figure 4 (see Section 3 Results and Discussion).
Figure 4 Effects of compound 60 and BCTC alone (A) or in combination with capsaicin (B) on the core body temperature in mice. Capsaicin (CPS) was injected at 0 min, as indicated by the arrow. Compound 60 or BCTC were administered 15 min prior to CPS injection. The temperature was measured at −15, 0, 15, 30, 60, 90, 120, and 180 min. Since body temperature returned to control values 60 min after CPS injection, subsequent measurements are not shown. Control animals received vehicles (1% DMSO or 1% Tween 80). All the compounds were administered i.p. Each experimental group consisted of seven to eight animals. The data are presented as the mean differences (ΔT) in rectal temperature from baseline (time −15 for A and time 0 for B) to the respective time point. The data were analyzed with one-way ANOVA followed by Tukey’s post hoc test. ** p < 0.01, *** p < 0.001, **** p < 0.0001 vs. the control group; ^#### p < 0.0001 vs. the CPS-treated group.

[4] = tested on: 6 Hz (32 mA) seizures in mice; assay: 6 Hz (32 mA) psychomotor seizure model; assay type: in vivo; conditions: for responders at 100 mg/kg / ED50: Mus musculus, ip; for ED50: mice, pretreatment time 0.5 h, (95% confidence limits)
Experimental: as §1, §2, §3, §4, §5, §6

[5] = molecular target: T1, TRPV1 (VR1) (h) (Homo sapiens, UniProt Q8NER1); assay: TRPV1 (VR1) (h) antagonist effect functional assay; assay type: cell-based; conditions: human recombinant CHO cells, read-out: % Inhibition of control agonist response, TRPV1 (antagonist effect)
T1 construct: host or cells: CHO
T1 sequence (Q8NER1 whole entry): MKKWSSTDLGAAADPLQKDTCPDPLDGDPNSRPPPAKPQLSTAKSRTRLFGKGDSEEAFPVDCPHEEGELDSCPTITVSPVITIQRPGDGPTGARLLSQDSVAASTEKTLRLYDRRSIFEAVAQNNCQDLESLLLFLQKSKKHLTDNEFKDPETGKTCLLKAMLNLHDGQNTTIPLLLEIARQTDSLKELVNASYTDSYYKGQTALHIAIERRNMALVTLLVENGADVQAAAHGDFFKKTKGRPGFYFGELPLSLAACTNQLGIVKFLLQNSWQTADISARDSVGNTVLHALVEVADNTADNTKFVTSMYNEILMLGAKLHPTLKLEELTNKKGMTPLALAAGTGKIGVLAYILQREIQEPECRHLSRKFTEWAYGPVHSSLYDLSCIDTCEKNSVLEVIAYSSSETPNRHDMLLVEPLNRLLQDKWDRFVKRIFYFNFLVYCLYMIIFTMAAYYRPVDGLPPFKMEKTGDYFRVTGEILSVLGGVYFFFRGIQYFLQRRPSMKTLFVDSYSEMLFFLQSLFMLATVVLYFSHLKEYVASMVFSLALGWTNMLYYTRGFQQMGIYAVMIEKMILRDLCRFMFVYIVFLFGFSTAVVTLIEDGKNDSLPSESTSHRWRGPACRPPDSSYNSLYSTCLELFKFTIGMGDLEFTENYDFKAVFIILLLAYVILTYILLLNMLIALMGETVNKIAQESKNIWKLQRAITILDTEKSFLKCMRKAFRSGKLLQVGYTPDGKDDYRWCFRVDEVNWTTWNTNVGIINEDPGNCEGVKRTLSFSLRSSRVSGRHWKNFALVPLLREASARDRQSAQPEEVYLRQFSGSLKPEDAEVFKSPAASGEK
Experimental: (§7) Binding/functional studies were carried out commercially in Eurofins Laboratories (Poitiers, France) and Eurofins Panlabs Discovery Services Taiwan, Ltd. (New Taipei City, Taiwan) using testing procedures that were reported previously (for details see Table S2).
(§8) Table S2. Radioligand binding and functional assays. […]
Assays were performed commercially in Eurofins Laboratories (Poitiers, France) or Eurofins Panlabs Discovery Services Taiwan, Ltd. (New Taipei City, Taiwan).
Table S3. In vitro TRPV1 channel antagonist activity for compounds 45–66 (concentration of 100 µM). […]
Cmpd % Inhibition of control Cmpd % Inhibition of control agonist responsea agonist responsea
*Source: human recombinant CHO cells. a Results showing activity higher than 50% are considered to represent […]
variability of the sign al around the control level. Assays were performed commercially in Eurofins Laboratories

[6] = Chimney test (acute neurological deficit); conditions: mouse, in vivo, ip, mice
Experimental: as §2, §3, §4
We also established the median toxic doses (TD50) in the chimney test 0.5 h post i.p. administration of these compounds. […]

[7] = Metabolic stability in human liver microsomes (HLMs)
[8] = molecular target: T2, recombinant human CYP2C9 (Homo sapiens, UniProt P11712); assay: CYP2C9 P450-Glo luminescent assay; assay type: in vitro ADME
T2 construct: purchased Promega (Madison, WI, USA)
Experimental: The risk of potential DDIs was predicted with use of luminescent CYP3A4, 2D6, and 2C9 P450-Glo assays (Figure 6). […] However, such an effect was also observed in our previous studies for other pyrrolidine-2,5-dione derivatives. […] However, the potential risk of DDI of 60 was still assessed as very low, and was compared to the selective CYP2C9 inhibitor sulfaphenazole (Figure 6C).
The data were analyzed with one-way ANOVA, followed by Bonferroni’s Multiple Comparison Post Test (Graph Pad Prism 8.0.1 software, San Diego, CA, USA)): * p < 0.05, ** p < 0.01, *** p < 0.001 **** p < 0.0001. The compounds were examined in triplicate.

[9] = molecular target: T1, TRPV1 (VR1) (h); assay: TRPV1 (VR1) (h) antagonist effect functional assay; assay type: cell-based; conditions: human recombinant CHO cells
[10] = molecular target: T3, Calcium Cav1.2 channels (dihydropyridine site) (Homo sapiens, UniProt Q13936); assay: Calcium Cav1.2 channel binding (dihydropyridine site, antagonist radioligand); conditions: 10 µM; human recombinant HEK-293 cell; read-out: % Inhibition of Control Specific Binding, Cav1.2 (dihydropyridine site)
T3 construct: host or cells: HEK-293
T3 sequence (Q13936 whole entry): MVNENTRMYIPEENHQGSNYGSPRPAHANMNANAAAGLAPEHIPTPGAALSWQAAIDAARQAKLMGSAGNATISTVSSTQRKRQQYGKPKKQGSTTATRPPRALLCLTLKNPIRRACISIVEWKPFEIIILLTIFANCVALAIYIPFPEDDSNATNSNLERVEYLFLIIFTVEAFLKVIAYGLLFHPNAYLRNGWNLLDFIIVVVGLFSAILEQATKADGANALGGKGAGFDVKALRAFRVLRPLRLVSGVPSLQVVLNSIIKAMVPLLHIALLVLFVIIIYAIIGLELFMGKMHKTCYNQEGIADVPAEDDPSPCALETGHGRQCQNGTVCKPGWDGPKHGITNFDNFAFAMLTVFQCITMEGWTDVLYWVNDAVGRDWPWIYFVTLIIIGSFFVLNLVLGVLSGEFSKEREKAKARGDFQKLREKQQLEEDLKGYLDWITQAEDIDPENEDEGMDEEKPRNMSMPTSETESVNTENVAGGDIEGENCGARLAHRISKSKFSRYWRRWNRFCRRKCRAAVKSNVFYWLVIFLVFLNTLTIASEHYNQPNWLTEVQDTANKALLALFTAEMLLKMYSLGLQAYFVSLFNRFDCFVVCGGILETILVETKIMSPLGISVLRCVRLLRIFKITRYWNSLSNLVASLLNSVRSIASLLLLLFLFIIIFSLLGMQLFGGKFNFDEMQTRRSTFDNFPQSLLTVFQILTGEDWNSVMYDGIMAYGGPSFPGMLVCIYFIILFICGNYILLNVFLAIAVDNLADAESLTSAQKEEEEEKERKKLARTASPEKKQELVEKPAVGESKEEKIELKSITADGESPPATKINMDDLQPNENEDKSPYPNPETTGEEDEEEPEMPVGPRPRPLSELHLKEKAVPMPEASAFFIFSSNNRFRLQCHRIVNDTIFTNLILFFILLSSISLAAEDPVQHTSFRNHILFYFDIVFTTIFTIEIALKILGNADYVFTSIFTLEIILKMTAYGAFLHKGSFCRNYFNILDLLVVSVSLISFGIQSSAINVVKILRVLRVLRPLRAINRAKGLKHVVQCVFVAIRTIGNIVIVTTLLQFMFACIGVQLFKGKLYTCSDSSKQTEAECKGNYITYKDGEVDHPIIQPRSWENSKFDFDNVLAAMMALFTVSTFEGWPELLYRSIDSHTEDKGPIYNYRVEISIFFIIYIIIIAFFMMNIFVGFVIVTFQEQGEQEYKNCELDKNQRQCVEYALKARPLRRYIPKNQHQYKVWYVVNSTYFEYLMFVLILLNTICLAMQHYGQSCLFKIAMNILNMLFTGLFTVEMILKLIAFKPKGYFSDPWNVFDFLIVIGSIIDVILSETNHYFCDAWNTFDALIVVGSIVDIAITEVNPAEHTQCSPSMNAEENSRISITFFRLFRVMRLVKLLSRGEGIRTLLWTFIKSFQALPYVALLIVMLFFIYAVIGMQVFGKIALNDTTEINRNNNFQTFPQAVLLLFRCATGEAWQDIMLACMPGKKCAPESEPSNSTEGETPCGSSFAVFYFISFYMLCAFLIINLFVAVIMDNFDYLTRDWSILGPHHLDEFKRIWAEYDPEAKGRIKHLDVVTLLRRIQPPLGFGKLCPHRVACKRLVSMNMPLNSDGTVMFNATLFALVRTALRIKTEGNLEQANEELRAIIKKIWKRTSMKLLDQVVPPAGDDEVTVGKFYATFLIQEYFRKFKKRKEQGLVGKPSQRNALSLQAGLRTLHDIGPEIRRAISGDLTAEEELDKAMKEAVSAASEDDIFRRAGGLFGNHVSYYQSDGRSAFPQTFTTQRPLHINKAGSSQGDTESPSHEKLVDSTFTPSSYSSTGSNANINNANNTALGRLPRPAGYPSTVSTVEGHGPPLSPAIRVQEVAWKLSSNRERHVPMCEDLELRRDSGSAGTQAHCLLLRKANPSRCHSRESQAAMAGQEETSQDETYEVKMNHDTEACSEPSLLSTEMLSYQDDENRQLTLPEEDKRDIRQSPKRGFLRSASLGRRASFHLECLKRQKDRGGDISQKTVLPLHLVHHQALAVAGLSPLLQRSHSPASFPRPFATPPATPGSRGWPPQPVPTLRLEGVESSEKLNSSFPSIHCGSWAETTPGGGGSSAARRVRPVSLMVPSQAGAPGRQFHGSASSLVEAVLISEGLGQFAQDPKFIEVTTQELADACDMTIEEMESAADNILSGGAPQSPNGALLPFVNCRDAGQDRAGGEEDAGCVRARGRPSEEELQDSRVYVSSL
T3 sequence (Q08289 whole entry partner): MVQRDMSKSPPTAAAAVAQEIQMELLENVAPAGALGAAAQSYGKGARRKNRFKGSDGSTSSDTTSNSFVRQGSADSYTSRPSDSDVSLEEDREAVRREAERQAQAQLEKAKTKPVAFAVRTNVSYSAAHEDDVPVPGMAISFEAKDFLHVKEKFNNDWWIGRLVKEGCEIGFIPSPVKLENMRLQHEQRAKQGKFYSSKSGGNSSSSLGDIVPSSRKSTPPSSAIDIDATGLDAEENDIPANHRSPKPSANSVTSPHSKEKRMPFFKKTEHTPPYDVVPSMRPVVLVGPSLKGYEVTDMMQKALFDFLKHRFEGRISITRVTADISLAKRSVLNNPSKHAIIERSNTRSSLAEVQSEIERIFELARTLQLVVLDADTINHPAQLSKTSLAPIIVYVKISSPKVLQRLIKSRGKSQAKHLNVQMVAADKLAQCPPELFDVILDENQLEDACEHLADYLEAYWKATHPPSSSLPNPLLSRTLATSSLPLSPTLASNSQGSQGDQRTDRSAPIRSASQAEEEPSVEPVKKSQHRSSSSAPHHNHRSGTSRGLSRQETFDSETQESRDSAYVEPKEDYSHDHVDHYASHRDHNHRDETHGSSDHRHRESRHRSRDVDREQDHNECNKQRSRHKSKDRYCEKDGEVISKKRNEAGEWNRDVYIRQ
T3 sequence (P54289 25-956 partner limits assumed): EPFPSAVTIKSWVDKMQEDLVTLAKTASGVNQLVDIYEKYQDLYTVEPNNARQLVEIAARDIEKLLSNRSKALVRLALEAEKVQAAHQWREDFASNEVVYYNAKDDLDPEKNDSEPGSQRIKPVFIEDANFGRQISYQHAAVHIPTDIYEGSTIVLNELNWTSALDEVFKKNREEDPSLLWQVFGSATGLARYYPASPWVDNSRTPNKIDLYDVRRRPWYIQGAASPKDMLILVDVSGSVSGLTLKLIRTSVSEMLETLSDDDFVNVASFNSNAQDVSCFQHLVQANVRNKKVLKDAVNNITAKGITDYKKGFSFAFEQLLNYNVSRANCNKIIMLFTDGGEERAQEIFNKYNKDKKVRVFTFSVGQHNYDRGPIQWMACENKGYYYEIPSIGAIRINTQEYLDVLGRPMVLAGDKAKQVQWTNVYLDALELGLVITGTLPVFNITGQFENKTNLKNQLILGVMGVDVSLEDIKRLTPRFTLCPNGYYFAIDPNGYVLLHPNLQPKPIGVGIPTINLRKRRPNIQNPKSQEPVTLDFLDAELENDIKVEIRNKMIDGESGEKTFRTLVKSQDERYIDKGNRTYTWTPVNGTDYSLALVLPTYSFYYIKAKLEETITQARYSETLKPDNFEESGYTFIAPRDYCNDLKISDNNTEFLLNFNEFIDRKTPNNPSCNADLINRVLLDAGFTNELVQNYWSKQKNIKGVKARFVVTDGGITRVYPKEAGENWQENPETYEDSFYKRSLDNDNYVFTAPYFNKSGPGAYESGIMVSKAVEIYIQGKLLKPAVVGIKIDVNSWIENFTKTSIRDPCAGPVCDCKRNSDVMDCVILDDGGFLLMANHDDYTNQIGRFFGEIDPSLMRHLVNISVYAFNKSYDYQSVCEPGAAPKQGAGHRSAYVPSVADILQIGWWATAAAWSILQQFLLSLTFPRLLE
T3 sequence (P54289 957-1103 partner limits assumed): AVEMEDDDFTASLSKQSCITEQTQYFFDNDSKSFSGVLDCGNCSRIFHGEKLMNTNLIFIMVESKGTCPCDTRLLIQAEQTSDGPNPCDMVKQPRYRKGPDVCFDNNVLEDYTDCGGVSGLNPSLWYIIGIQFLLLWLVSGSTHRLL

[11] = tested on: hepatoma HepG2 cell line; assay: Hepatotoxicity, HepG2 viability (MTS); assay type: cell-based; conditions: 72 h treatment
Experimental: Figure 7 The effect of 53, 60, and 62, cytostatic drug doxorubicin (DX) and the mitochondrial toxin CCCP on the hepatoma HepG2 cell line viability after 72 h of incubation at 37 °C, 5% CO2. The data were analyzed with one-way ANOVA, followed by Bonferroni’s Comparison Test (Graph Pad Prism 8.0.1 software, San Diego, CA, USA)): ** p < 0.01, **** p < 0.0001 vs. negative control (DMSO 1% in growth media).

[12] = molecular target: T4, Cav1.2 (h) calcium ion channel (Homo sapiens, UniProt Q13936); assay: Cav1.2 (h) calcium ion channel cell-based antagonist calcium flux assay; conditions: HEK293, human recombinant HEK-293 cell, read-out: % Inhibition of control agonist response, Cav1.2 calcium flux
T4 construct: Eurofins
Experimental: as §7, §8
TRPV1 (VR1) (h) (antagonist effect)
Cav1.2 (L-type) (h) calcium ion channel cell-based antagonist calcium flux assay
Assays were performed commercially in Eurofins Laboratories (Poitiers, France) or Eurofins Panlabs Discovery
Services Taiwan, Ltd. (New Taipei City, Taiwan). […]

[13] = tested on: Na+ channel (site 2); assay: Na+ channel (site 2) radioligand binding; conditions: 10 µM; rat cerebral cortex
[14] = tested on: 6 Hz (32 mA) seizures in mice; conditions: i.p., pretreatment 0.5 h (LEV 1.0 h); cited from earlier work
[15] = tested on: 6 Hz (44 mA) seizures in mice; conditions: i.p., pretreatment 0.5 h; cited from earlier work
[16] = tested on: MES-induced seizures in mice; conditions: i.p., pretreatment 0.5 h (LEV 1.0 h); cited from earlier work
[17] = tested on: mice; conditions: i.p., acute neurological deficit, cited from earlier work
[18] = 100 mg/kg i.p., 0.5 h, read-out: 6 Hz (32 mA) screening: number of mice protected/number of mice tested (converted)
[19] = 100 mg/kg i.p., 0.5 h, four mice, read-out: protection in 6 Hz (32 mA) screening

CC(C)(C)c1ccc(NC(=O)N2CCN(c3ncccc3Cl)CC2)cc1 [BCTC, N-(4-Tertiarybutylphenyl)-4-(3-Chloropyridin-2-Yl)Tetrahydropyrazine-1(2H)-Carbox-Amide, reference compound]
scPTZ screening: number of mice protected/number of mice tested [1]: 0/4
protection in scPTZ screening ([1]; four mice): ineffective
protection in MES screening [2]: ineffective
responders at 100 mg/kg [2]: 0%
effect on capsaicin-induced hypothermia (co-administration) ([3]; i.p. 15 min before capsaicin 5 mg/kg): prevented the capsaicin-evoked decrease in body temperature
protection in 6 Hz (32 mA) screening ([4]; 100 mg/kg i.p., 0.5 h, four mice): ineffective
responders at 100 mg/kg [4, 18]: 0%

CC(=O)NC(C(=O)N1CCN(c2cccc(Cl)c2)CC1)c1ccccc1 (centres unmarked) [Compound 47, N-(2-(4-(3-chlorophenyl)piperazin-1-yl)-2-oxo-1-phenylethyl)acetamide]
responders at 100 mg/kg [2]: 0%
ED50 [2]: > 150 mg/kg
inhibition at 100 µM [5]: 125%
TD50 at 0.5 h [6]: > 500 mg/kg
melting point: 145.5 to 146.7 °C
responders at 100 mg/kg [4, 19]: 75%
responders at 100 mg/kg [4, 18]: 75%
ED50 [4]: 88.4 mg/kg

CC(=O)NC(C(=O)N1CCN(c2cccc(SC(F)(F)F)c2)CC1)c1ccccc1 (centres unmarked) [Compound 62, N-(2-oxo-1-phenyl-2-(4-(3-((trifluoromethyl)thio)phenyl)piperazin-1-yl)ethyl)acet--amide]
scPTZ screening: number of mice protected/number of mice tested [1]: 0/4
remaining at 2 h ([7]; human, human liver microsomes): 84%
Metabolic Pathway ([7]; metabolites after 120 min incubation with HLMs): hydroxylation
influence on CYP2C9 activity [8]: weak inhibition effect
protection in MES screening [2]: 75%
responders at 100 mg/kg [2]: 75%
ED50 [2]: 76.1 mg/kg
inhibition at 100 µM [5]: 135%
IC50 [9]: 10 µM
Kb [9]: 1.4 µM
inhibition at 10 µM [10]: 12%
responders at 100 mg/kg [4, 19]: 100%
responders at 100 mg/kg [4, 18]: 100%
ED50 [4]: 33.2 mg/kg
effect on HepG2 cell viability (hepatotoxicity) [11]: highest hepatotoxic risk
inhibition at 10 µM [12]: 65%
% Inhibition of Control Specific Binding, Na+ channel (site 2) [13]: 57.0 (10) %

O=C(C(c1ccccc1)N1C(=O)CCC1=O)N1CCN(c2cccc(C(F)(F)F)c2)CC1 (centres unmarked) [KA-104]
ED50 6 Hz (32 mA) [14]: 22.4 (17.4−28.8) mg/kg
ED50 6 Hz (44 mA) [15]: 73.2 (57.4–93.4) mg/kg
ED50 MES [16]: 23.7 (18.4−31.2) mg/kg

COC[C@@H](NC(C)=O)C(=O)NCc1ccccc1 [LCS, Lacosamide]
ED50 6 Hz (32 mA) [14]: 5.3 (3.5−7.8) mg/kg
ED50 6 Hz (44 mA) [15]: 6.9 (5.4–8.6) mg/kg
ED50 MES [16]: 9.2 (8.5−10.0) mg/kg

CC[C@@H](C(N)=O)N1CCCC1=O [LEV, Levetiracetam]
ED50 6 Hz (44 mA) [15]: 204.0 (154.5–269.5) mg/kg
TD50 (rotarod test) ([17]; ref 32): >500 ** mg/kg
TD50 (rotarod test) ([17]; ref 34): >500 ** mg/kg
ED50 MES [16]: >500 mg/kg

CCCC(CCC)C(=O)O [VPA, Valproic acid]
ED50 6 Hz (32 mA) [14]: 130.6 (117.6−145.2) mg/kg

COc1cc(CNC(=O)CCCC/C=C/C(C)C)ccc1O [capsaicin]
effect on rectal (core body) temperature, given alone ([3]; i.p., capsaicin 5 mg/kg): produced a significant drop in the rectal temperature
